Where two headings read alike, the source gives them in different places. Marks after values point to notes of the source that are not given here.
How the values were obtained:
[1] = molecular target: T1, human mu opioid receptors (CHO-hMOR cells) (Homo sapiens, UniProt P35372); assay: Adenylyl cyclase assay, CHO-hMOR cells (control not expressing hCB2Rs); format: cell-based; settings: 10 μM
T1 construct: expressed in transfected cells; host or cells: CHO cells (CHO-hMOR), membranes or intact cells
T1 sequence (P35372 whole entry): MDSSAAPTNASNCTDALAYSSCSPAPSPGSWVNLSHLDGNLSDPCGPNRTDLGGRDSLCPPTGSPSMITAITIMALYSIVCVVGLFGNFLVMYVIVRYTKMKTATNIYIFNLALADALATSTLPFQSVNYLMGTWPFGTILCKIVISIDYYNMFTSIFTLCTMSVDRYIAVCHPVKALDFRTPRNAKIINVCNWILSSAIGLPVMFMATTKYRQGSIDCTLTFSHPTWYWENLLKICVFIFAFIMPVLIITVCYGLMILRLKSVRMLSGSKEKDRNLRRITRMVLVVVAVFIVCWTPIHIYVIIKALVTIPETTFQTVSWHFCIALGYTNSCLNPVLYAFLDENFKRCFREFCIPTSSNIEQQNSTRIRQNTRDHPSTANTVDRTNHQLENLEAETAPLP

[2] = molecular target: T2, human cannabinoid type-1 receptors (hCB1) (Homo sapiens, UniProt P21554); assay: [35S]GTPγS binding, CHO-hCB1 membranes; format: biochemical; settings: for IMAX, GTPγS Binding (% Basal) CHO-hCB1: maximal reduction of basal G-protein activity
T2 construct: host or cells: CHO cells (CHO-hCB1), membranes or intact cells
T2 sequence (P21554 whole entry): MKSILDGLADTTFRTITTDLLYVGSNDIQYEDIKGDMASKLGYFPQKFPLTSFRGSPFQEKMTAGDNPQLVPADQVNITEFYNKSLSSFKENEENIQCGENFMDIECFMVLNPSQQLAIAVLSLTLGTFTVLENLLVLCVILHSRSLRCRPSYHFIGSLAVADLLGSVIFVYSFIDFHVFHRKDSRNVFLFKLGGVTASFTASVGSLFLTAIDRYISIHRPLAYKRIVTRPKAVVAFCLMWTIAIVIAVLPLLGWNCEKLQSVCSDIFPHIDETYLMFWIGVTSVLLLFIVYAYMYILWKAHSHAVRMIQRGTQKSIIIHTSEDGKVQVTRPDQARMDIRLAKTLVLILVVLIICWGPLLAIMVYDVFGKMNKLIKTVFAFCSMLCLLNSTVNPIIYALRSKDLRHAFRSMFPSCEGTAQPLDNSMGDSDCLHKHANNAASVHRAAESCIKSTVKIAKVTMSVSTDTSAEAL
Experimental: In short, pellets were thawed on ice, combined in a 40 ml glass Dounce homogenizer and homogenized in 20 ml of cold buffer (50 mM HEPES at pH 7.4, 3 mM MgCl2, and 1 mM EGTA) using 10 strokes. Homogenates were then centrifuged at 40,000 × g for 10 min at 4°C. After discarding the supernatant, pellets were homogenized and centrifuged twice more. Final pellets were re-suspended in ice-cold 50 mM HEPES, pH 7.4, aliquoted and stored at -80°C for future use. Protein concentration was determined the same day, prior to freezing, using BCA^TM Protein Assay (Thermo Fisher Scientific, Waltham, MA, USA).
(§1) Non-specific binding was defined by radioactivity remaining in the presence of 10 μM of non-radioactive GTPγS. All reactions were incubated for 30 min at 30°C, terminated by filtration through Whatman GF/B glass fiber filters (Brandel, Inc.) and followed by four 4 ml washes of ice cold filtration buffer (50 mM HEPES, pH 7.4) containing 0.1% bovine serum albumin. Filter punches of individual samples were placed in scintillation vials containing 4 mls of ScintiverseTM BD cocktail scintillation fluid (Fisher Scientific, Pittsburg, PA, USA). Final counts were determined using liquid scintillation spectrophotometry (Tri Carb 2100 TR Liquid Scintillation Analyzer, Packard Instrument Company, Meriden, CT, USA) after overnight incubation.
(§2) Statistical analyses were conducted by utilizing GraphPad Prism v6.0g (GraphPad Software, Inc.; San Diego, CA, USA). IC50 values from competition receptor binding curves were derived by non-linear regression. […] Non-linear regression analysis of concentration-effect curves was also used to determine potency (ED50 or IC50) and efficacy (Emax or Imax) for modulation of GTPγS and adenylyl cyclase activity, respectively. All IC50, EC50, Ki, and Kb values were converted to pEC50, pIC50, pKi, and pKb values in order to permit use of parametric statistical analyses. For all experiments comparing three or more values, an one-way ANOVA was employed, followed by Dunnett’s or Tukey’s post hoc tests. For comparisons of two values, an unpaired t-test was utilized. To determine significant radioligand displacement or modulation of G-protein activity compared to basal levels, a one-sample t-test was employed.
CBRs are coupled to Gi/Go type G-proteins. Therefore, binding of agonists to CBRs leads to G-protein activation, antagonists produce no effect, and inverse agonists reduce basal G-protein activity produced by constitutively active receptors. SERMs were screened by examining the ability of a single receptor saturating concentration (10 μM) to modulate G-protein activity in membranes prepared from CHO-hCB1 and CHO-hCB2 cells. G-protein activation was quantified using employing [^35S]GTPγS, a non-hydrolyzable analog of GTP, that irreversibly binds to the G-proteins when activated.

[3] = molecular target: T2, human cannabinoid type-1 receptors (hCB1); assay: Antagonism of CP-55,940 inhibition of adenylyl cyclase, intact CHO-hCB1 cells; format: cell-based; settings: for IMAX of CP-55,940 after pre-incubation with the drug: CHO-hCB1 cells, pre-incubation 30 min: OSP, NAF, BAZ 10 μM, RAL 2 μM, AM-281 1 μM
Experimental: Briefly, cells cultured between passages 4 and 15 were seeded into 24-well plates at a concentration of 6.5 million cells per plate and incubated overnight in a humidified incubator maintained at 37°C and 5% CO2. Growth media was removed the next day and replaced with media containing […] [^3H]adenine, 0.9g/L NaCl, and 0.5 mM isobutyl-methyl-xanthine (IBMX) for 2–3 h. Radioactive media was then removed and each well treated with 0.5 ml of varying concentrations of SERM compounds in a Krebs-Ringer-HEPES solution (10 mM HEPES, 110 mM NaCl, 25 mM Glucose, 55 mM Sucrose, 5 mM KCl, 1 mM MgCl2, 1.8 mM CaCl2, pH 7.4) containing 0.5 mM IBMX and 10 μM forskolin. Plates were then floated in a 37°C water bath for 15 min before reactions were terminated by addition of 50 μL of 2.2 N HCl to each well.
Reactions were then terminated by adding 50 μL of 2.2 N HCl to each well. [^3H]cAMP was isolated using alumina column chromatography and radioactivity quantified following addition of 10 mls of scintiverseTM BD cocktail scintillation fluid (Fisher Scientific, Pittsburg, PA, USA) by liquid scintillation spectrophotometry (Tri Carb 2100 TR Liquid Scintillation Analyzer, Packard Instrument Company, Meriden, CT, USA).
as §2
IC50 and Kb values were converted to pIC50 and pKb values (pIC50 = -Log[IC50] or pKb = -Log[Kb], respectively) to allow use of parametric statistics for comparison.

[4] = molecular target: T3, human mu opioid receptors (hMOR) (Homo sapiens, UniProt P35372); assay: [35S]GTPγS binding, CHO-hMOR membranes (control devoid of CBRs); format: biochemical; settings: 10 μM
T3 construct: expressed in transfected cells; host or cells: CHO cells (CHO-hMOR), membranes or intact cells
T3 sequence (P35372 whole entry): as the sequence (P35372 whole entry) above
Experimental: as §1

IC50 ([2]; reduction of basal G-protein activity, CHO-hCB1 membranes, read-out: IC50, GTPγS Binding CHO-hCB1) [nM] | Kb ([3]; read-out: Kb (antagonist dissociation constant), CHO-hCB1) [nM] | Structure (SMILES) | effect on basal cAMP levels, CHO-hMOR cells [1] | IMAX, GTPγS Binding (% Basal) CHO-hCB1 [2] | IMAX of CP-55,940 after pre-incubation with the drug [3] [%] | IC50 [2] [nM] | reduction of basal G-protein activity, hCB1Rs ([2]; CHO-hCB1 membranes, 10 μM) [%] | decrease in basal G-protein activity, CHO-hMOR [4] [%] | Kb [3] [nM]
– | – | Cc1c(-c2ccc(O)cc2)n(Cc2ccc(OCCN3CCCCCC3)cc2)c2ccc(O)cc12 [BAZ, bazedoxifene] | only slightly altered | – | – | – | – | – | –
524 | 1160 | COc1ccc2c(c1)CCC(c1ccccc1)=C2c1ccc(OCCN2CCCC2)cc1 [NAF, nafoxidine] | – | 31.7 ± 1.5^a % | 38.3 ± 1.7 | – | – | – | –
– | – | OCCOc1ccc(/C(=C(/CCCl)c2ccccc2)c2ccccc2)cc1 [OSP, ospemifene] | – | 30.3 ± 2.0^a % | 43.8 ± 2.7 | 170 | ~30 | 11 | 173

From article PMC5177629, “Selective Estrogen Receptor Modulators: Cannabinoid Receptor Inverse Agonists with Differential CB1 and CB2 Selectivity” (Frontiers in Pharmacology, 2016)
